{"source": "patent US7713926B2", "about": "“Method of producing partial peptide of enolase protein from Plasmodium falciparum” (National University Corporation Gunma University, priority 2004, dated 2010)", "system": "antibodies existing in sera from Plasmodium falciparum malaria patients and non-infected individuals", "assay": "Fluorescent ELISA of human sera on plate-fixed peptide compound (antibody level)", "type": "binding", "conditions": "peptide fixed on plastic plate as antigen", "protocol": "An antigen solution was prepared by dissolving 500 μg of the peptide compound (SEQ ID NO: 13) synthesized in Example 10 in 100 μl of dimethyl sulfoxide and by subsequently adding 1900 μl of a 0.05 M carbonate buffer (pH 9.6). The prepared antigen solution was dispensed by […] in each of […] on a plastic plate for fixation of the peptide compound.\nThe sera collected from Plasmodium falciparum malaria patients under informed consent at hospitals in Japan were used as subject sera, and the sera collected from non-infected individuals under informed consent in Japan were used as control sera. The subject sera and the control sera were individually added to the wells on the plastic plate to allow the antibodies existing in the respective sera to react with the peptide compound (SEQ ID NO: 13).\nAfter removal of the serum, an enzyme-labeled secondary antibody against human immunoglobulin was added to each well for the immunological reaction. […] The measured antibody levels were expressed by relative fluorescence unit (RFU values).\nFIG. 7 is a graph showing antibody levels of sera (1-7) from Plasmodium falciparum-infected patients and those of sera (8-12) from non-infected individuals (for the purpose of comparison) measured by the fluorescent ELISA method with the synthesized peptide compound (SEQ ID NO: 13). […]", "data": [{"substance": "H-Glu-Glu-Glu-Glu-Ala-Ser-Glu-Phe-Tyr-Asn-Ser-Glu-Asn-Lys-Thr-Tyr-Asp-Leu-Asp-Phe-Lys-Thr-Pro-Asn-Asn-Asp-Gly-Gly-OH (H-EEEEASEFYNSENKTYDLDFKTPNNDGG-OH) [SEQ ID NO: 13, partial peptide of enolase from Plasmodium falciparum, used as ELISA antigen]", "values": [{"measurement": "average antibody level of the non-infected individuals", "setting": "control sera (8-12) from non-infected individuals, same fluorescent ELISA", "result": 67, "unit": "RFU"}, {"measurement": "average antibody level of the malaria patients", "setting": "sera (1-7) from Plasmodium falciparum-infected patients, enzyme-labeled secondary antibody against human immunoglobulin, 4-methylumbelliferyl phosphate", "result": 181, "unit": "RFU"}]}]}
